As usually defined, the EC50 is the concentration at which the effect is half-maximal.

This test concerns the target T1, recombinant human ALX receptor (Homo sapiens, UniProt P25090).
T1 construct: expressed in transfected cells; host or cells: HEK293 (HEK293-hALXR-Gα16)
T1 sequence (P25090 1-351): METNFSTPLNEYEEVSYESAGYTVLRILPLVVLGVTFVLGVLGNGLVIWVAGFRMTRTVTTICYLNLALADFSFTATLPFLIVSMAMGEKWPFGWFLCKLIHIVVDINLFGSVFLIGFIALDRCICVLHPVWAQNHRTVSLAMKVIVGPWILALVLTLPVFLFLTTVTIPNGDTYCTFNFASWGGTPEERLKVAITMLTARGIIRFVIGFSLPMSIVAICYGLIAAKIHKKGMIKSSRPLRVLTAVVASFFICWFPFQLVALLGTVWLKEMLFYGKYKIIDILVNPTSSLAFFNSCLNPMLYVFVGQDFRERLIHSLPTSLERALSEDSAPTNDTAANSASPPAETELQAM
Description: Intracellular calcium measurements (FLIPR), ALX receptor agonistic activity. The format is cell-based. Particulars: HEK293-hALXR-Gα16 cells, Fluo-4 calcium signal, normalized to WKYMVm 10 nM. The method, boiled down: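 Agonist-induced calcium flux was read by FLIPR (488/540 nm) as baseline-subtracted peak emission, expressed relative to WKYMVm at 10 nM final. Cells used: HEK293-hALXR-Gα16, dye-loaded 60 min at 37° C. with 1 μM Fluo-4 AM before compound dose-response addition.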
(In general: A change in cytosolic calcium serves as a functional read-out for many receptors and channels.)

Counter-ions that a name gives are not always drawn.

As to `COc1cc(F)c(CC(NC(=O)NC23CCC(O)(CC2)CC3)c2nc3ccc(F)cc3[nH]2)c(F)c1` (single isomer, unassigned; ent-2) [Example 373, 1-(2-(2,6-Difluoro-4-methoxyphenyl)-1-(6-fluoro-1H-benzo[d]imidazol-2-yl)ethyl)-3-(4-hydroxybicyclo[2.2.2]octan-1-yl)urea (ent-2)], the EC50 turned out to be 0.107 µM.

For the molecule `CCc1ccc(CC(NC(=O)N[C@H]2CC[C@H](O)CC2)c2nc3cc(F)ccc3[nH]2)cc1` (single isomer, unassigned; ent-2) [Example 374, 1-(2-(4-Ethylphenyl)-1-(5-fluoro-1H-benzo[d]imidazol-2-yl)ethyl)-3-(trans-4-hydroxycyclohexyl)urea (ent-2)], the EC50 amounted to 0.597 µM.

With `COc1ccc(CC(NC(=O)N[C@H]2CC[C@H](O)CC2)c2nc3cc(F)ccc3[nH]2)c(F)c1F` (single isomer, unassigned; ent-2) [Example 376, 1-(2-(2,3-Difluoro-4-methoxyphenyl)-1-(5-fluoro-1H-benzo[d]imidazol-2-yl)ethyl)-3-(trans-4-hydroxycyclohexyl)urea (ent-2)], the EC50 came out at 0.067 µM.

Turning to `COc1ccc(CC(NC(=O)NC23CCC(O)(CC2)CC3)c2nc3ccc(F)cc3[nH]2)c(F)c1` (single isomer, unassigned; ent-2) [Example 398, 1-(1-(6-Fluoro-1H-benzo[d]imidazol-2-yl)-2-(2-fluoro-4-methoxyphenyl)ethyl)-3-(4-hydroxybicyclo[2.2.2]octan-1-yl)urea (ent-2)], the EC50 was determined as 2.62 µM.

`COc1ccc(C[C@@H](NC(=O)N[C@H]2CC[C@H](O)CC2)c2nc3ccccc3[nH]2)cc1` [Example 4, 1-((R)-1-(1H-Benzo[d]imidazol-2-yl)-2-(4-methoxyphenyl)ethyl)-3-(trans-4-hydroxycyclohexyl)urea]: the EC50 stood at 0.0078 µM.

On to `COc1ccc(C[C@@H](NC(=O)NCc2cccc(OC)c2)c2nc3ccccc3[nH]2)cc1` [Example 5, (R)-1-(1-(1H-Benzo[d]imidazol-2-yl)-2-(4-methoxyphenyl)ethyl)-3-(3-methoxybenzyl)urea], for which the EC50 amounted to 0.602 µM.

`COc1ccc(C[C@@H](NC(=O)NCCc2cccc(OC)c2)c2nc3ccccc3[nH]2)cc1` [Example 6, (R)-1-(1-(1H-Benzo[d]imidazol-2-yl)-2-(4-methoxyphenyl)ethyl)-3-(3-methoxyphenethyl)urea]: the half-maximal effective concentration (EC50) is 0.378 µM.

For `COc1ccc(C[C@@H](NC(=O)Nc2cc(C)n(C)n2)c2nc3ccccc3[nH]2)cc1` [Example 7, (R)-1-(1-(1H-Benzo[d]imidazol-2-yl)-2-(4-methoxyphenyl)ethyl)-3-(1,5-dimethyl-1H-pyrazol-3-yl)urea], the EC50 was determined as 0.315 µM.

Consider `COc1ccc(CC(NC(=O)NCCc2ccccn2)c2nc3ccccc3[nH]2)cc1` (stereo not shown) [Example 8, 1-(1-(1H-Benzo[d]imidazol-2-yl)-2-(4-methoxyphenyl)ethyl)-3-(2-(pyridin-2-yl)ethyl)urea], for which the concentration for a half-maximal effect (EC50) amounted to 0.593 µM.

Turning to `COc1ccc(CC(NC(=O)NCC(F)(F)F)c2nc3ccccc3[nH]2)cc1` (stereo not shown) [Example 9, 1-(1-(1H-Benzo[d]imidazol-2-yl)-2-(4-methoxyphenyl)ethyl)-3-(2,2,2-trifluoroethyl)urea], the EC50 worked out at 0.45 µM.

Regarding `COc1ccc(CC(NC(=O)NC2CCOCC2)c2nc3ccccc3[nH]2)cc1` (stereo not shown) [Example 10, 1-(1-(1H-Benzo[d]imidazol-2-yl)-2-(4-methoxyphenyl)ethyl)-3-(tetrahydro-2H-pyran-4-yl)urea], the EC50 turned out to be 0.113 µM.

For `COc1ccc(CC(NC(=O)NC2CCC2)c2nc3ccccc3[nH]2)cc1` (stereo not shown) [Example 11, 1-(1-(1H-Benzo[d]imidazol-2-yl)-2-(4-methoxyphenyl)ethyl)-3-cyclobutylurea], the EC50 came out at 0.062 µM.

Turning to `COc1ccc(CC(NC(=O)NC2CCCC2)c2nc3ccccc3[nH]2)cc1` (stereo not shown) [Example 12, 1-(1-(1H-Benzo[d]imidazol-2-yl)-2-(4-methoxyphenyl)ethyl)-3-cyclopentylurea], the EC50 stood at 0.045 µM.

Take `COc1ccc(C[C@@H](NC(=O)NC2CC=CC2)c2nc3ccccc3[nH]2)cc1` [Example 13, (R)-1-(1-(1H-Benzo[d]imidazol-2-yl)-2-(4-methoxyphenyl)ethyl)-3-(cyclopent-3-en-1-yl)urea hydrochloride]: the EC50 worked out at 0.027 µM.

Turning to `COc1ccc(C[C@@H](NC(=O)NC2CCC(F)(F)CC2)c2nc3ccccc3[nH]2)cc1` [Example 14, (R)-1-(1-(1H-Benzo[d]imidazol-2-yl)-2-(4-methoxyphenyl)ethyl)-3-(4,4-difluorocyclohexyl)urea], the concentration giving a half-maximal response (EC50) worked out at 0.038 µM.

Regarding `COc1ccc(C[C@@H](NC(=O)NC2CCc3ccccc3C2)c2nc3ccccc3[nH]2)cc1` (stereo partly drawn) [Example 15, 1-((R)-1-(1H-Benzo[d]imidazol-2-yl)-2-(4-methoxyphenyl)ethyl)-3-(1,2,3,4-tetrahydronaphthalen-2-yl)urea hydrochloride], the EC50 is 0.059 µM.

Consider `COc1ccc(C[C@@H](NC(=O)NC2CCCCC2)c2nc3ccccc3[nH]2)cc1` [Example 17, (R)-1-(1-(1H-Benzo[d]imidazol-2-yl)-2-(4-methoxyphenyl)ethyl)-3-cyclohexylurea hydrochloride], for which the EC50 was 0.047 µM.

Turning to `COc1ccc(C[C@@H](NC(=O)NC2CC2)c2nc3ccccc3[nH]2)cc1` [Example 19, (R)-1-(1-(1H-Benzo[d]imidazol-2-yl)-2-(4-methoxyphenyl)ethyl)-3-cyclopropylurea], the EC50 stood at 0.6 µM.

Regarding `COc1ccc(C[C@@H](NC(=O)N[C@H]2CCc3ccccc32)c2nc3ccccc3[nH]2)cc1` [Example 20, 1-((R)-1-(1H-Benzo[d]imidazol-2-yl)-2-(4-methoxyphenyl)ethyl)-3-((S)-2,3-dihydro-1H-inden-1-yl)urea], the EC50 was found to be 0.712 µM.

For the molecule `COc1ccc(C[C@@H](NC(=O)N[C@@H]2CCC[C@@H]2O)c2nc3ccccc3[nH]2)cc1` [Example 21, 1-((R)-1-(1H-Benzo[d]imidazol-2-yl)-2-(4-methoxyphenyl)ethyl)-3-((1R,2S)-2-hydroxycyclopentyl)urea], the EC50 is 0.029 µM.

Take `COc1ccc(C[C@@H](NC(=O)NC2CCC(C)CC2)c2nc3ccccc3[nH]2)cc1` (stereo partly drawn) [Example 22, (R)-1-(1-(1H-Benzo[d]imidazol-2-yl)-2-(4-methoxyphenyl)ethyl)-3-(4-methylcyclohexyl)urea]: the EC50 worked out at 0.085 µM.

On to `COc1ccc(C[C@@H](NC(=O)NC2CCCCC2C)c2nc3ccccc3[nH]2)cc1` (stereo partly drawn) [Example 23, 1-((R)-1-(1H-Benzo[d]imidazol-2-yl)-2-(4-methoxyphenyl)ethyl)-3-(2-methylcyclohexyl)urea], for which the EC50 came out at 0.124 µM.

On to `COc1ccc(C[C@@H](NC(=O)NC2CC3CCC2C3)c2nc3ccccc3[nH]2)cc1` (stereo partly drawn) [Example 25, 1-((R)-1-(1H-Benzo[d]imidazol-2-yl)-2-(4-methoxyphenyl)ethyl)-3-(bicyclo[2.2.1]heptan-2-yl)urea], for which the EC50 worked out at 0.0097 µM.

For the molecule `COc1ccc(C[C@@H](NC(=O)NC2Cc3ccccc3C2)c2nc3ccccc3[nH]2)cc1` [Example 26, (R)-1-(1-(1H-Benzo[d]imidazol-2-yl)-2-(4-methoxyphenyl)ethyl)-3-(2,3-dihydro-1H-inden-2-yl)urea], the EC50 was determined as 0.109 µM.

With `COc1ccc(C[C@@H](NC(=O)NC2CCCc3ccccc32)c2nc3ccccc3[nH]2)cc1` (stereo partly drawn) [Example 27, 1-((R)-1-(1H-Benzo[d]imidazol-2-yl)-2-(4-methoxyphenyl)ethyl)-3-(1,2,3,4-tetrahydronaphthalen-1-yl)urea], the EC50 was 0.026 µM.

`COc1ccc(C[C@@H](NC(=O)NC2CCc3cccc(OC)c3C2)c2nc3ccccc3[nH]2)cc1` (stereo partly drawn) [Example 30, 1-((R)-1-(1H-Benzo[d]imidazol-2-yl)-2-(4-methoxyphenyl)ethyl)-3-(8-methoxy-1,2,3,4-tetrahydronaphthalen-2-yl)urea]: the EC50 is 0.026 µM.

`COc1ccc(C[C@@H](NC(=O)NCc2ccccc2Cn2cncn2)c2nc3ccccc3[nH]2)cc1` [Example 31, (R)-1-(2-((1H-1,2,4-Triazol-1-yl)methyl)benzyl)-3-(1-(1H-benzo[d]imidazol-2-yl)-2-(4-methoxyphenyl)ethyl)urea]: the EC50 was found to be 0.026 µM.

For `COc1ccc(C[C@@H](NC(=O)NC2CCCC(C)C2)c2nc3ccccc3[nH]2)cc1` (stereo partly drawn) [Example 33, 1-((R)-1-(1H-Benzo[d]imidazol-2-yl)-2-(4-methoxyphenyl)ethyl)-3-(3-methylcyclohexyl)urea], the 50% effective concentration (EC50) is 0.13 µM.

In the case of `O=C(N[C@H](Cc1ccc(Br)cc1)c1nc2ccccc2[nH]1)N[C@H]1CC[C@H](O)CC1` [Example 35, 1-((R)-1-(1H-Benzo[d]imidazol-2-yl)-2-(4-bromophenyl)ethyl)-3-(trans-4-hydroxycyclohexyl)urea], the EC50 is 0.0054 µM.

For the molecule `COc1ccc(C[C@@H](NC(=O)N[C@H]2CC[C@H](O)CC2)c2nc3ccc(Cl)cc3[nH]2)cc1` [Example 36, 1-((R)-1-(6-Chloro-1H-benzo[d]imidazol-2-yl)-2-(4-methoxyphenyl)ethyl)-3-(trans-4-hydroxycyclohexyl)urea], the EC50 is 0.001 µM.

`COc1ccc(CC(NC(=O)NC2CCCC(O)C2)c2nc3ccccc3[nH]2)cc1` (stereo not shown) [Example 37, 1-(1-(1H-Benzo[d]imidazol-2-yl)-2-(4-methoxyphenyl)ethyl)-3-(3-hydroxycyclohexyl)urea]: the EC50 is 0.027 µM.
